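Each compound was tested at five concentrations against cells in 96-well plates for 48 hours. TGI is the concentration that stops growth completely.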
Experiments:
Assay in all cases: inhibition of tumour cell growth, NCI panel, 48 h
[1] = system: BT-549 breast
[2] = system: MALME-3M melanoma
[3] = system: OVCAR-5 ovarian
[4] = system: A498 renal
[5] = system: NCI/ADR-RES ovarian
[6] = system: SK-MEL-5 melanoma
[7] = system: ACHN renal
[8] = system: TK-10 renal
[9] = system: UO-31 renal
[10] = system: MOLT-4 leukemia
[11] = system: UACC-62 melanoma
[12] = system: SN12C renal
[13] = system: 786-0 renal
[14] = system: U251 CNS
[15] = system: KM12 colon
[16] = system: SR leukemia
[17] = system: COLO 205 colon
[18] = system: NCI-H460 lung
[19] = system: HOP-62 NSCLC
[20] = system: RXF 393 renal
[21] = system: HS 578T breast
[22] = system: MDA-MB-231 breast
[23] = system: UACC-257 melanoma
[24] = system: MCF7 breast
[25] = system: PC-3 prostate
[26] = system: HL-60(TB) leukemia
[27] = system: HCT-116 colon
[28] = system: OVCAR-4 ovarian
[29] = system: T-47D breast
[30] = system: SK-OV-3 ovarian
[31] = system: HCC-2998 colon
[32] = system: CAKI-1 renal
[33] = system: HT29 colon
[34] = system: SNB-19 CNS
[35] = system: DU-145 prostate
[36] = system: HCT-15 colon
[37] = system: SF-295 CNS
[38] = system: SNB-75 CNS
[39] = system: OVCAR-3 ovarian
[40] = system: SF-268 CNS
[41] = system: IGROV1 ovarian
[42] = system: SW-620 colon
[43] = system: HOP-92 NSCLC
[44] = system: SK-MEL-28 melanoma
[45] = system: SK-MEL-2 melanoma
[46] = system: K-562 leukemia
[47] = system: SF-539 CNS
[48] = system: EKVX NSCLC
[49] = system: MDA-N
[50] = system: LOX IMVI melanoma
[51] = system: CCRF-CEM leukemia
[52] = system: A549 NSCLC
[53] = system: OVCAR-8 ovarian
[54] = system: MDA-MB-435
[55] = system: RPMI-8226 leukemia
[56] = system: M14 melanoma
[57] = system: NCI-H226 lung
[58] = system: NCI-H522 lung
[59] = system: NCI-H23 lung

CCOC(=O)C1C(=O)CC(O)(c2ccccc2)C(C(=O)OCC)C1c1ccc(N(C)C)cc1 (stereo unspecified)
TGI [1]: > 100 µM | TGI [2]: > 85.6 µM | TGI [3]: > 100 µM | TGI [4]: > 100 µM | TGI [5]: > 78.2 µM | TGI [6]: 72.3 µM | TGI [7]: > 100 µM | TGI [8]: > 100 µM | TGI [9]: > 100 µM | TGI [10]: > 84.1 µM | TGI [11]: > 100 µM | TGI [12]: > 100 µM | TGI [13]: > 100 µM | TGI [14]: > 81.2 µM | TGI [15]: > 100 µM | TGI [16]: 49.1 µM | TGI [17]: 53.5 µM | TGI [18]: > 83.8 µM | TGI [19]: > 88.8 µM | TGI [20]: 44.4 µM | TGI [21]: 23.1 µM | TGI [22]: > 77.1 µM | TGI [23]: > 100 µM | TGI [24]: > 100 µM | TGI [25]: > 100 µM | TGI [26]: 40 µM | TGI [27]: > 100 µM | TGI [28]: > 100 µM | TGI [29]: > 92.5 µM | TGI [30]: 52 µM | TGI [31]: > 100 µM | TGI [32]: > 100 µM | TGI [33]: > 58.5 µM | TGI [34]: > 79.9 µM | TGI [35]: > 100 µM | TGI [36]: > 100 µM | TGI [37]: 29.8 µM | TGI [38]: 64.9 µM | TGI [39]: > 75.1 µM | TGI [40]: > 93.5 µM | TGI [41]: > 100 µM | TGI [42]: > 100 µM | TGI [43]: > 81.7 µM | TGI [44]: > 100 µM | TGI [45]: > 94 µM | TGI [46]: > 100 µM | TGI [47]: 37 µM | TGI [48]: > 100 µM | TGI [49]: 33.7 µM | TGI [50]: > 100 µM | TGI [51]: > 65.1 µM | TGI [52]: > 100 µM | TGI [53]: > 65.9 µM | TGI [54]: 25.9 µM | TGI [55]: 37.4 µM | TGI [56]: > 100 µM | TGI [57]: > 100 µM | TGI [58]: 30.7 µM | TGI [59]: > 93.9 µM

CCCCCCCCCCCCCCCCCCNc1ccn(C2OC(CO)C(OP(=O)(O)OCC(COP(=O)(O)OCC3OC(n4cc(F)c(NCCCCCCCCCCCCCCCCCC)nc4=O)CC3O)OC(=O)CCCCCCCCCCCCCCC)C2O)c(=O)n1 (stereo unspecified)
TGI [1]: > 100 µM | TGI [2]: > 100 µM | TGI [3]: > 100 µM | TGI [4]: > 100 µM | TGI [5]: > 100 µM | TGI [6]: > 100 µM | TGI [7]: > 100 µM | TGI [8]: > 100 µM | TGI [9]: > 100 µM | TGI [10]: > 100 µM | TGI [11]: > 100 µM | TGI [12]: > 100 µM | TGI [13]: > 100 µM | TGI [14]: > 100 µM | TGI [15]: > 100 µM | TGI [16]: > 100 µM | TGI [17]: > 100 µM | TGI [18]: > 100 µM | TGI [19]: > 100 µM | TGI [20]: > 100 µM | TGI [21]: > 100 µM | TGI [22]: > 100 µM | TGI [23]: > 100 µM | TGI [24]: > 100 µM | TGI [25]: > 100 µM | TGI [26]: > 100 µM | TGI [27]: > 100 µM | TGI [28]: > 100 µM | TGI [29]: > 100 µM | TGI [30]: > 100 µM | TGI [31]: > 100 µM | TGI [32]: > 100 µM | TGI [33]: > 100 µM | TGI [34]: > 100 µM | TGI [35]: > 100 µM | TGI [36]: > 100 µM | TGI [37]: > 100 µM | TGI [38]: > 100 µM | TGI [39]: > 100 µM | TGI [40]: > 100 µM | TGI [41]: > 100 µM | TGI [42]: > 100 µM | TGI [43]: > 100 µM | TGI [44]: > 100 µM | TGI [45]: > 100 µM | TGI [46]: > 100 µM | TGI [47]: > 100 µM | TGI [48]: > 100 µM | TGI [49]: > 100 µM | TGI [50]: > 100 µM | TGI [51]: > 100 µM | TGI [52]: > 100 µM | TGI [53]: > 100 µM | TGI [54]: > 100 µM | TGI [55]: > 100 µM | TGI [56]: > 100 µM | TGI [57]: > 100 µM | TGI [58]: > 100 µM | TGI [59]: > 100 µM

Cc1ccc(C(N)=Nc2ccccc2)cc1
TGI [1]: > 100 µM | TGI [2]: > 100 µM | TGI [3]: > 100 µM | TGI [4]: > 100 µM | TGI [5]: > 100 µM | TGI [6]: > 100 µM | TGI [7]: > 100 µM | TGI [8]: > 100 µM | TGI [9]: > 100 µM | TGI [10]: > 100 µM | TGI [11]: > 100 µM | TGI [12]: > 100 µM | TGI [13]: > 100 µM | TGI [14]: > 100 µM | TGI [15]: > 100 µM | TGI [16]: > 100 µM | TGI [17]: 42.2 µM | TGI [18]: > 100 µM | TGI [19]: > 100 µM | TGI [20]: > 100 µM | TGI [21]: > 100 µM | TGI [22]: > 100 µM | TGI [23]: > 100 µM | TGI [24]: > 100 µM | TGI [25]: > 100 µM | TGI [26]: > 100 µM | TGI [27]: > 100 µM | TGI [28]: > 100 µM | TGI [29]: > 100 µM | TGI [30]: > 100 µM | TGI [31]: 33.7 µM | TGI [32]: > 100 µM | TGI [33]: > 100 µM | TGI [34]: > 100 µM | TGI [35]: > 100 µM | TGI [36]: > 100 µM | TGI [37]: > 100 µM | TGI [38]: > 100 µM | TGI [39]: > 100 µM | TGI [40]: > 100 µM | TGI [41]: > 100 µM | TGI [42]: > 100 µM | TGI [43]: > 100 µM | TGI [44]: > 100 µM | TGI [45]: > 100 µM | TGI [46]: > 100 µM | TGI [47]: > 100 µM | TGI [48]: > 100 µM | TGI [49]: > 100 µM | TGI [50]: > 100 µM | TGI [51]: > 100 µM | TGI [52]: > 100 µM | TGI [53]: > 100 µM | TGI [54]: > 100 µM | TGI [55]: > 100 µM | TGI [56]: > 100 µM | TGI [57]: > 100 µM | TGI [58]: > 100 µM | TGI [59]: > 100 µM

CC(C)=CCC/C(C)=C/CC/C(C)=C/CCN(C)CCO
TGI [1]: 26.3 µM | TGI [2]: 8.33 µM | TGI [3]: 21.1 µM | TGI [4]: 29.3 µM | TGI [5]: 26.7 µM | TGI [6]: 3.44 µM | TGI [7]: 23.9 µM | TGI [8]: 19.4 µM | TGI [9]: 25.3 µM | TGI [10]: 11.1 µM | TGI [11]: 27.1 µM | TGI [12]: 25.5 µM | TGI [13]: 4.83 µM | TGI [14]: 12.7 µM | TGI [15]: 7.77 µM | TGI [16]: 21.4 µM | TGI [17]: 3.25 µM | TGI [18]: 14.5 µM | TGI [19]: 19.6 µM | TGI [20]: 24.9 µM | TGI [21]: 6.57 µM | TGI [22]: 23.9 µM | TGI [23]: 21.7 µM | TGI [24]: 7.13 µM | TGI [25]: 18.2 µM | TGI [26]: 3.68 µM | TGI [27]: 16.3 µM | TGI [28]: 29.1 µM | TGI [29]: 7.4 µM | TGI [30]: 29.6 µM | TGI [31]: 4.38 µM | TGI [32]: 19.2 µM | TGI [33]: 23.3 µM | TGI [34]: 22.8 µM | TGI [35]: 25.9 µM | TGI [36]: 13.7 µM | TGI [37]: 12.1 µM | TGI [38]: 21 µM | TGI [39]: 28.9 µM | TGI [40]: 27 µM | TGI [41]: 8.34 µM | TGI [42]: 18.4 µM | TGI [43]: 9.9 µM | TGI [44]: 25.1 µM | TGI [45]: 28.1 µM | TGI [46]: 3.24 µM | TGI [47]: 14.8 µM | TGI [48]: 32.3 µM | TGI [49]: 14.3 µM | TGI [50]: 14.3 µM | TGI [51]: 8.65 µM | TGI [52]: 23.3 µM | TGI [53]: 27.3 µM | TGI [54]: 17.4 µM | TGI [55]: 11 µM | TGI [56]: 3.81 µM | TGI [57]: 38.7 µM | TGI [58]: 16.5 µM | TGI [59]: 27.6 µM

Source: PubChem BioAssay (NCI)
